The values below are quoted from earlier work in patent EP1096056A1, “Wrinkle resistant composition” (THE PROCTER & GAMBLE COMPANY, priority 1999, dated 2001).

For data set [1] the following is noted: in water.

Structures can show the parent of a compound that is named as a salt.

Take `Cn1sc2c(c1=O)CCC2` [Promexal, 2-methyl-4,5-trimethylene-4-isothiazolin-3-one]: the “stability over a wide pH range” value was 4-12.

For `O=c1[nH]sc2ccccc12` [Proxel, 1,2-benzisothiazolin-3-one], the “stability over a wide pH range” value is 4-12.

Take `[H]/N=C(\N/C(=N/[H])NCCCCCCNC(=N)NC(=N)Nc1ccc(Cl)cc1)Nc1ccc(Cl)cc1` [diacetate salt, 1,1'-hexamethylene bis(5-(p-chlorophenyl)biguanide)]: the water solubility entry in data set [1] is “about 1.8%”.

As to `[H]/N=C(\N/C(=N/[H])NCCCCCCNC(=N)NC(=N)Nc1ccc(Cl)cc1)Nc1ccc(Cl)cc1` [digluconate salt, 1,1'-hexamethylene bis(5-(p-chlorophenyl)biguanide)], in data set [1], the water solubility entry is reported as “about 70%”.

With `[Na+].[O-][n+]1ccccc1[S-]` [sodium pyrithione], the water solubility entry in data set [1] is on record as “about 50%”.
